Assay results taken from patent US10604529B2, “Fused imidazole compound having indoleamine 2,3-dioxygenase inhibitory activity” (SHENZHEN CHIPSCREEN BIOSCIENCES CO., LTD., priority 2016, dated 2020).

Assays:
[1] = target: T1, IFN-γ-induced IDO enzyme in HeLa cells (Homo sapiens, UniProt P14902); experiment: Detection of IDO inhibitory activity at the cellular level (IFN-γ-induced HeLa cells); assay type: cell-based; conditions: tested compound 1 μM, human IFN-γ 50 ng/ml, 48 hours, read-out: IDO Inhibitory Rate (%) (1 μM)
T1 construct: HeLa cells are human cervical cancer cell lines and can up-regulate the expression of endogenous IDO enzymes; endogenous in cells; host or cells: HeLa cells stimulated with human IFN-γ
T1 sequence (P14902 whole entry): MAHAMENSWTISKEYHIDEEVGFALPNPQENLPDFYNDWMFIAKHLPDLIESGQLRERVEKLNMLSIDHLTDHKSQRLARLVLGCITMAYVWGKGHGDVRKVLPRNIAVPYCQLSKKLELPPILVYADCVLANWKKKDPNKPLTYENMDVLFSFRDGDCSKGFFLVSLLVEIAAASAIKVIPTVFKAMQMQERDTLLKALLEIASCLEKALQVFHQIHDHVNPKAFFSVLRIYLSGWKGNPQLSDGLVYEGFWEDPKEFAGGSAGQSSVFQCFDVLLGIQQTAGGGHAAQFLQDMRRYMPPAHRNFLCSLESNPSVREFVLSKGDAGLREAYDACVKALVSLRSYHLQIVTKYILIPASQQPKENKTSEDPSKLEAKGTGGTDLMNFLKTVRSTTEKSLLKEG
From the text: In the present disclosure, IFN-γ-induced IDO enzyme expression in HeLa cells were used as a model to detect the IDO enzymatic inhibitory activity of the compound at the cellular level. HeLa cells are human cervical cancer cell lines and can up-regulate the expression of endogenous IDO enzymes under the induction of human IFN-γ. The cell supernatant can be subjected to detection of the enzyme-catalyzed product kynurenine by adding the substrate L-tryptophan to the cell culture solution. […] Recombinant human IFN-γ cytokine purchased from Sangon Biotech, Phenol red-free DMEM for cell culture purchased from Gibco. […] The cells were further cultured for 48 hours and detected. (2) 200 μl of the supernatant from the culture well was pipetted, 40 μl of a pre-formulated 30% (w/v) trichloroacetic acid solution was added, allowed to react at 65° C. for 20 minutes, and then centrifuged at 12,000 rpm for 15 minutes. (3) 100 μl of the supernatant after centrifugation was pipetted and added into a 96-well plate, an equal volume of 2% p-dimethylaminobenzaldehyde in glacial acetic acid was added, and they were mixed well and allowed to stand at room temperature for 10 minutes. (4) A microplate reader (ELX800NB) was used to detect the color signal of each well, and the detection wavelength was 492 nm.

[2] = target: T2, Recombinant human IDO enzyme (IDO1 enzyme) (Homo sapiens, UniProt P14902); experiment: In vitro IDO enzymatic activity assay (kynurenine colour reaction, 492 nm); assay type: biochemical; conditions: tested compound concentration 200 nM; recombinant human IDO1; read-out: IDO Enzymatic Inhibition Rate (%) (200 nM)
T2 construct: purchased BPS Bioscience, USA
T2 sequence (P14902 whole entry): as above
Experimental: The basic principle of the in vitro IDO enzymatic activity detection is to use the IDO enzyme to metabolize the substrate L-tryptophan to produce the product kynurenine in an in vitro enzyme-catalyzed reaction system. The kynurenine is yellow in color reaction with p-dimethylaminobenzaldehyde in glacial acetic acid, and the absorbance value was measured at 492 nm on a microplate reader. The concentration of the product kynurenine in the sample is calculated by comparison to a standard curve of kynurenine with a known concentration.
Recombinant human IDO enzyme (IDO1 enzyme) was purchased from BPS Bioscience, USA.
(3) Control reactions were set up at the same time the detection reaction was carried out. including 0 inhibition positive control with no tested compound added and 0 enzyme negative control with no enzyme added. All tests were run in duplicate.
(4) After the enzymatic reaction was completed, 40 μl of a pre-formulated 30% (w/v) trichloroacetic acid solution was added, and reacted at 65° C. for 20 minutes, followed by centrifugation at 12,000 rpm for 15 minutes.
(5) 100 μl of the supernatant after centrifugation was pipetted and added to a 96-well plate. An equal volume of 2% p-dimethylaminobenzaldehyde in glacial acetic acid was added, well mixed, and allowed to stand at room temperature for 10 minutes.
(6) A microplate reader (ELX800NB) was used to detect the color signal of each well with a detection wavelength of 492 nm.
In addition, the enzymatic inhibition rates were calculated for the tested compounds of different concentration gradients, and then the enzymatic half maximal inhibitory concentration (IC50) was calculated using the IC50 calculator.
According to the above-mentioned method of experiment, the compound of the present disclosure was subjected to an in vitro IDO enzymatic IC50 assay using NLG919 as a positive control compound.

| inhibition at 1 µM [1] | inhibition at 0.2 µM [2] | Structure (SMILES) |
| --- | --- | --- |
| 83% | 81% | CN(CC(=O)N1CCC(C(O)CC2c3ccccc3-c3cncn32)CC1)c1ccc(C#N)cc1 (centres unmarked) [Example 98] |
| 95% | 85% | COc1cccc(N(C)CC(=O)N2CCC(C(O)CC3c4ccccc4-c4cncn43)CC2)c1 (centres unmarked) [Example 102, 2-((3-methoxyphenyl)(methyl)amino)-1-(4-(1-hydroxy-2-(5H-imidazo[5,1-a]isoindol-5-yl)ethyl)piperidin-1-yl)ethyl-1-one] |
| 91% | 84% | CN(CC(=O)N1CCC(C(O)CC2c3ccccc3-c3cncn32)CC1)c1ccc([N+](=O)[O-])cc1 (centres unmarked) [Example 105, 1-(4-(1-hydroxy-2-(5H-imidazo[5,1-a]isoindol-5-yl)ethyl)piperidin-1-yl)-2-(methyl(4-nitrophenyl)atnino)ethyl-1-one] |
| 74% | 75% | CN(CC(=O)N1CCC(C(O)CC2c3ccccc3-c3cncn32)CC1)c1ccc2ncccc2c1 (centres unmarked) [Example 113, 1-(4-(1-hydroxy-2-(5H-imidazo[5,1-a]isoindol-5-yl)ethyl)piperidin-1-yl)-2-(methyl(quinolin-6-yl)amino)ethyl-1-one] |
